# According to ChEMBL document CHEMBL3507680, “University of Dundee, Gates Library screen for HepG2 cell viability”:
# Test: Human HepG2 cell viability assay in 384 well format
# Assay type: toxicity, cell-based
# Parameters: dose 125 nL, time 70.5 hour; concentration not given beside the values
# Conditions: HepG2 cells, read-out: Inhibition
row,Compound,cytotoxicity at 70.5 h [%]
1,CCN1CCCn2c(nc(CNC(=O)c3cnoc3C)cc2=O)C1,5.12
2,O=C1CC2(CCN(C(=O)c3ccccn3)C2)Nc2ccccc2N1 (centres undefined),-14.7
3,COCC1CN(C(=O)C2=CCCCC2)Cc2cnn(CC3CC3)c21 (centres undefined),-2.03
4,Cc1cccnc1NC(=O)NC(C)Cn1cccn1 (centres undefined),-7.34
5,Cc1cc(C)c2c(N3CCN(CCN4CCOCC4)CC3)ncnc2n1,16.3
6,Cc1noc(C)c1CN(C)C(C)c1cccs1 (centres undefined),-3.21
7,Cc1ccc(S(=O)(=O)NC(=O)COc2cccc(C#N)c2)c(C)c1,14.4
8,Cn1cccc1C(=O)N1CCO[C@H]2[C@H](OCc3cccnc3)CC[C@@H]21,-7.88
9,CC(C)c1ncc2c(n1)CN(Cc1ccc3c(c1)OCCO3)CC2,12.6
10,CN1CC2(CCN(Cc3ccoc3)CC2)COc2ccccc2S1(=O)=O,-12.1
11,COc1cc(C2(C(=O)NCCn3ccnc3)CCCC2)ccc1C,-6.48
12,O=C(C1CCOC1)N1CCN(CCn2cccn2)c2ncccc2C1 (centres undefined),-1.8
13,c1cc(-c2noc([C@@H]3Cc4nc[nH]c4CN3)n2)ccn1,1.06
14,NCC(=O)N1CCCC1c1n[nH]cc1-c1ccccc1F (centres undefined),25.4
15,COc1ccc(CCNc2cc(-c3nc(C)no3)ccn2)cc1OC,-3.44
16,Cn1cc(CN2CCC3(CCCN(Cc4ccccn4)C3)CC2)cn1,-5.87
17,CC(Cc1ccc(C(F)(F)F)cc1)C(=O)N1CCCS1(=O)=O (centres undefined),-9.41
18,CN(CCC(=O)N1CCc2sccc2C1)Cc1cc(Br)cs1,-4.84
19,O=C(c1cccc(Cl)c1)N1CCCC(Nc2ccc(F)cc2)C1 (centres undefined),2.07
20,c1ccc2oc(CCCN3CCCC3Cn3cncn3)nc2c1 (centres undefined),-15.6
21,CCn1nnnc1-c1cccc(NC(N)=O)c1,-5.79
22,CC(C(=O)N1CCOCC1)N1CCc2cncnc2C1 (centres undefined),-4.71
23,Cc1nc(NC(=O)CN2C(=O)c3ccccc3NC2C(C)C)sc1C (centres undefined),-11.4

row,Compound,cytotoxicity at 70.5 h [%]
1,CC(C)n1cc(CN2CCCN(C(=O)C3CCCN3C)CC2)cn1 (centres undefined),-3.1
2,NS(=O)(=O)Cc1ccc(CNc2cncc(-n3cccn3)n2)cc1,-14
3,CCOc1cc(CNCCCn2ccnc2)cc(Cl)c1OCC,19.9
4,CC(C)(O)CCc1cccc(C(=O)NCc2nccs2)c1,3.29
5,COCC(=O)Nc1nccn1Cc1ccc(Br)cc1,-0.968
6,N#Cc1ccccc1N1CCCN(C(=O)CCn2cccn2)CC1,-23
7,CC(NCc1cccc(Cl)c1)c1ccc(OCC(=O)NC2CC2)cc1 (centres undefined),-4.37
8,CC(=O)NCCCNCc1cc(F)ccc1Br,15
9,CCOC1CC2(CCN(Cc3cnn(C)c3)CC2)c2ccc(C)cc21 (centres undefined),1.09
10,Cc1ccc(O)c(CNc2cccc(CN3CCSCC3)c2)n1,1.03
11,Cn1nc(Br)c2c(=O)n(CCc3ccccc3)cnc21,-8.29
12,NC(=O)C1CCCN1C(=O)c1cccc2c1OCO2 (centres undefined),-1.57
13,CC(C)CN1CCc2[nH]nc(C(=O)N3CCCC3)c2C1,28.7
14,CC(=O)N1N=C(Cc2ccccc2)OC1C(=O)NCC(C)C (centres undefined),-1.89
15,CC(NC(=O)N1CCC1)c1ccc(S(N)(=O)=O)cc1 (centres undefined),-7.27
16,CCS(=O)(=O)Cc1ccn(-c2cccc(F)c2)n1,-3.75
17,Cc1nc(C)c(CNCc2nnc3n2CCCC3C(F)(F)F)s1 (centres undefined),-8.57
18,CNC(=O)c1cc(NC(=O)Nc2cnn(CC(C)C)c2)ccc1F,-4.7
19,CCS(=O)(=O)N1C[C@H]2CN(Cc3cccnc3)C(=O)[C@H]2C1,16.7
20,CCCn1nc2c(cc1=O)CN(c1ncnc3ccsc13)CC2,-13
21,Cc1ccc(CN(C)C(=O)CN2CCCC2Cn2cncn2)cc1 (centres undefined),-3.7
22,CC(C)NC(=O)C1CN(C(=O)c2ccccc2)CC12CCOCC2 (centres undefined),-5.57
23,O[C@@H]1CN(Cc2ccc(F)cc2)CC[C@H]1NCc1ccccn1,15.4

row,Compound,cytotoxicity at 70.5 h [%]
1,Cc1noc(C(C)C)c1C(=O)NCCCN1CCCC1,-6.55
2,Cc1cc(C)n(CCCn2cncc2-c2ccc3c(c2)CC(C)N3C)n1 (centres undefined),2
3,CCc1cnc(CN(C)C2CCN(CC3CCN(C(C)=O)CC3)C2)o1 (centres undefined),10
4,CS(=O)(=O)C1CCN(S(=O)(=O)c2ccc(F)c(F)c2)CC1,1.4
5,CN1CSC[C@H]1C(=O)N1CCN(Cc2cccc(F)c2)CC1,8.84
6,CSCCC1c2nc[nH]c2CCN1Cc1[nH]c2ccc(F)cc2c1C (centres undefined),10.9
7,COc1ccc2cc(C3CN(C(=O)C4CCOCC4)CCO3)ccc2c1 (centres undefined),1.57
8,CN(Cc1cc(C2CC2)[nH]n1)C(=O)C(c1cccnc1)N1CCCC1 (centres undefined),-3.32
9,Cn1c(C2CC2)nc2cc(NC(=O)C3(O)CCCC3)ccc21,-4.26
10,CC(C)NC(=O)N1CCc2nc(C(=O)NCc3ccccc3)sc2CC1,-15.4
11,CNC(=O)CN1CCC(NC2CSCCc3ccccc32)CC1 (centres undefined),0.136
12,COCC(=O)N1CCCC(C)(c2nncn2C)C1 (centres undefined),-14.6
13,Cc1ccc(CN2C[C@@H]3COC[C@@H](CC(=O)N4CCOCC4)[C@@H]3C2)s1,-11
14,Cc1noc(C)c1CN1CCC2(CC1)CC(Oc1cccnc1)CO2 (centres undefined),1.43
15,c1ccc(-c2cnc(CNCC3CCCN3c3cccnn3)o2)cc1 (centres undefined),-5.15
16,CSCc1cccc(S(=O)(=O)Nc2cc(C)on2)c1,3.33
17,CCCN1CCN(C(=O)c2ccc(Cl)cn2)[C@H]2CS(=O)(=O)C[C@H]21,-10.4
18,O=C1CC2(CCCNC2)C(=O)N1Cc1ccccc1 (centres undefined),18.9
19,NC(=O)N1CCCC(C(=O)NCc2ccccc2OC(F)(F)F)C1 (centres undefined),-9.4
20,Cc1ccc(N2CC[C@@H]3CN(Cc4c[nH]cn4)C[C@@H]3C2)nn1,11
21,COc1ccc(CN(C)[C@@H]2CN(C(=O)c3cccn3C)C[C@H]2O)cc1,16.9
22,Cc1ccnc(NCc2cn3c(C)csc3n2)n1,-11.5
23,CC(C)=CCS(=O)(=O)Cc1nc(C(C)C)no1,-11.6

row,Compound,cytotoxicity at 70.5 h [%]
1,CCS(=O)(=O)Nc1ccc2oc(C)c(C(=O)OC)c2c1,-15
2,N#Cc1c2n(c3c(N)ncnc13)CCCCC2,16.8
3,Cc1ccn2ncc(C(=O)N3CCCC(n4nc(C)nc4C)C3)c2n1 (centres undefined),-5.04
4,COc1ccc(CN2C[C@@H](OCc3csc(C)n3)[C@H]3COC[C@H]32)cc1,-3.55
5,CC(C)c1nccn1C1CCCN(C(=O)c2ccn(C)c(=O)c2)C1 (centres undefined),-4.13
6,Cc1cc(C)c(CNC(=O)N2CCCC2c2cccn2C)c(=O)[nH]1 (centres undefined),5.45
7,CN1CCO[C@@H]2CN(S(=O)(=O)c3ccccc3F)CC[C@@H]2C1,-1.61
8,CC(C)SCC(=O)N1Cc2cnc(-c3ccccc3)nc2C1,-7.54
9,O=C(c1cnccn1)N1CCN(Cc2csc(-c3ccccc3)n2)CC1,10.5
10,O=C(CSC1CCCC1)N1CCN(C(=O)C2CC2c2ccccc2)CC1 (centres undefined),-3.24
11,COc1cccc(-c2noc(-c3ccc(NCCCN)nc3)n2)c1OC,2.21
12,CC(=O)N1CCN(CC(=O)N2CCN(c3cccc(C)c3)CC2)CC1,24.4
13,O=C(c1ccco1)N1CCC2(CCC(=O)N2Cc2cccc(F)c2)CC1,-15.7
14,CC(C)CNC(=O)CSC1CCc2ccccc2NC1=O (centres undefined),-15.8
15,Cc1cc2c(=O)n3c(nc2s1)CCN(C(=O)c1ccnn1C)CC3,-8.17
16,Cc1cc(C(=O)NCCSC2CCCC2)no1,-1.92
17,Cc1nccn1-c1nccnc1C1CCN(Cc2ccc(F)cc2)CC1,24.1
18,CNc1cc(N2CCCC2CNCc2cnc(C)s2)ncn1 (centres undefined),2.89
19,CN(CC1(O)CCCN(c2ccccn2)C1)C(=O)Cc1ccsc1 (centres undefined),-9.68
20,O=C1CC(c2ccccc2F)c2c(n3ccsc3nc2=O)N1 (centres undefined),-14
21,Cc1ncsc1C(=O)N1CCn2nc(CN3CCSCC3)cc2C1,-1.17
22,CCOc1ccnc(N2CCN(C(=O)CCc3ccsc3)CC2)n1,-7.66
23,O=C1COC2(CCN(Cc3ccoc3)CC2)CN1c1ccsc1,-15.9

row,Compound,cytotoxicity at 70.5 h [%]
1,CC(NC(=O)NCCCc1n[nH]c(N)c1C#N)c1cccs1 (centres undefined),44.5
2,COc1ccccc1CCC(=O)N1C[C@H](c2ccccc2)[C@@H](N)C1,-8.71
3,Cc1ccc(C2CSCCN2C(=O)c2ccsc2)o1 (centres undefined),-6.25
4,NC(=O)c1ccc(CNC2CCCSC2)cc1 (centres undefined),-1.72
5,Cc1ccc([C@@H]2CN(C(=O)c3cccnn3)C[C@H]2NC(=O)C2CC2)cc1,-8.66
6,CC(C)Cc1cc(C(=O)NC(C)(CO)CO)n(C)n1,-16.8
7,COc1ccc(C(=O)C2CCCN(Cc3ccc(C)o3)C2)c(OC)c1 (centres undefined),-4.07
8,CC(Cc1ccc(Cl)cc1)NC(=O)Nc1cnn(CC(N)=O)c1 (centres undefined),-8.4
9,COc1cccc(S(=O)(=O)NC(=O)COC2CCCC2)c1,-3.13
10,Cn1cc(NC(=O)c2cccc(-n3cnnn3)c2)cn1,-13.6
11,CCCC(=O)N1CCC(c2nc(O)c3c(n2)CCN(C2CCCC2)C3)C1 (centres undefined),-0.72
12,CC(C)c1ccc(-n2cc(O)c(C(=O)N3CCC(C(N)=O)CC3)n2)cc1,0.806
13,CCNc1ccnc(NCC2CNCCO2)n1 (centres undefined),-3.23
14,CSc1nccc(N2CCC(NCc3nc(C)cc(C)n3)CC2)n1,1.01
15,O=c1[nH]c(NC2CCCC2)nc2nccc(-c3ccsc3)c12,-4.5
16,CCc1nc2n(n1)CC(NCC(=O)Nc1ccc(Cl)cn1)CC2 (centres undefined),-18.9
17,COc1cc(N2C[C@H]3CN(CCN4CCCC4)C(=O)[C@H]3C2)ncn1,-7.36
18,O=C1CC(N(C(=O)Cc2csc(-c3ccccc3)n2)C2CC2)C(=O)N1 (centres undefined),-1.89
19,O=C(NCc1ccccc1)NCC1CCN(Cc2ccsc2)CC1,-7.87
20,CC(c1nc(-c2cccnc2)no1)N(C)CCCOc1ccccc1 (centres undefined),-3.8
21,c1cnc(N2CCC3(CCN(CC4CCOC4)CC3)C2)nc1 (centres undefined),-1.96
22,CS(=O)(=O)CCC(=O)N1CCC2(CCCN(C3CCOCC3)C2=O)C1 (centres undefined),-9.61
